We go through 35 molecules from patent US20260174769A1, “MACROCYCLIC COMPOUNDS AND METHODS OF USE” (AMGEN INC., priority 2022, published 2026).

Where a name gives a salt, the structure may show the parent alone.

Chain of His-tagged KRAS G12D protein (P01116 1-188 isoform P01116-2 G12D): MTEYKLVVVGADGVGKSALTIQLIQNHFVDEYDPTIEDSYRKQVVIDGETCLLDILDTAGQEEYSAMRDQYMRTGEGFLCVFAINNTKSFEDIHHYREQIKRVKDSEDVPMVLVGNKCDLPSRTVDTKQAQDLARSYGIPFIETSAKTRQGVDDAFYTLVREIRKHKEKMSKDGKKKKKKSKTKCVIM

For one experiment, the target named is His-tagged KRAS G12D protein (Homo sapiens, UniProt P01116, G12D). The experiment in a line: KRAS G12D TR-FRET Assay. Type of experiment: binding. Particulars: TR-FRET binding. Here is the method:
The His-tagged KRAS G12D protein (Amgen) was diluted to 20 nM in Assay Buffer (20 mM HEPES, pH 7.4, 10 mM MgCl2, 50 mM NaCl, 0.1% BSA, 0.01% Tween-20, 10 μM GDP) and 2 μL was added to the appropriate wells of the 384-well plate. The plate was incubated for 30 minutes at room temperature. Biotinylated KRPep-2d substrate (Amgen) was diluted to 20 nM in Assay Buffer and 2 μL was added to all wells and incubated for 1 hour at room temperature. Detection Reagent (0.4 nM LANCE Eu-W1024 Anti-6×His (Perkin Elmer AD0401), 5 nM streptavidin-d2 (Cisbio 610SADLA)) was prepared in Assay Buffer, then 4 μL was added to the plate and incubated for 1 hour at room temperature.
`O=C1OC[C@H]2C[C@@H]2c2c(Cl)cc3[nH]ncc3c2-c2ncc3c(nc(OC[C@@]45CCCN4C[C@H](F)C5)nc3c2F)N2CCC[C@H](C2)O1` (racemic) [Example 113] came in with an IC50 of 10 nM.

In turn, `C[C@@]12CCCN(C1)c1nc(OC[C@@]34CCCN3C[C@H](F)C4)nc3c(F)c(ncc13)-c1cc(O)cc3c1[C@@H](CCCC(=O)N2)CCC3` (single isomer, unassigned) [Example 27, 2,2,2-trifluoroacetate salt] returned an IC50 of 7 nM.

In turn, `C[C@@]12CCCN(C1)c1nc(OC[C@@]34CCCN3C[C@H](F)C4)nc3c(F)c(ncc13)-c1cc(O)cc3c1[C@H](CCCC(=O)N2)CCC3` (single isomer, unassigned) [Example 28, 2,2,2-trifluoroacetate salt] returned an IC50 of 68 nM.

As to `Cc1cc2[nH]ncc2c2c1CCC[C@H](F)C(=O)N(C)[C@@H]1CCCN(C1)c1nc(OC[C@@]34CCCN3C[C@H](F)C4)nc3c(F)c-2ncc13` (single isomer, unassigned) [Example 51], the IC50 came to 10 nM.

`Cc1cc2[nH]ncc2c2c1CCC[C@@H](F)C(=O)N(C)[C@@H]1CCCN(C1)c1nc(OC[C@@]34CCCN3C[C@H](F)C4)nc3c(F)c-2ncc13` (single isomer, unassigned) [Example 52] yielded an IC50 of 19 nM.

For the molecule `O=C1CCCCc2c(Cl)cc3[nH]ncc3c2-c2ncc3c(nc(OC[C@@]45CCCN4C[C@H](F)C5)nc3c2F)N2CC[C@@H]3CCN1[C@@H]3C2` (single isomer, unassigned) [Example 61], the 50% inhibitory concentration (IC50) amounted to 79 nM.

For the molecule `O=C1CCCCc2c(Cl)cc3[nH]ncc3c2-c2ncc3c(nc(OC[C@@]45CCCN4C[C@H](F)C5)nc3c2F)N2CC[C@H]3CCN1[C@H]3C2` (single isomer, unassigned) [Example 62], the IC50 is 3 nM.

Molecule `O=C1CCCc2c(F)ccc3cccc(c23)-c2ncc3c(nc(OC[C@@]45CCCN4C[C@H](F)C5)nc3c2F)N2CC[C@H]3CCN1[C@H]3C2` (single isomer, unassigned) [Example 72] returned a half-inhibitory concentration (IC50) of 3 nM.

The molecule `C[C@@]12CCCN(C1)c1nc(OC[C@@]34CCCN3C[C@H](F)C4)nc3c(F)c(ncc13)-c1cccc3ccc(F)c(c13)CCOC(=O)N2` (single isomer, unassigned) [Example 77] gave an IC50 of 14 nM.

Consider `C[C@]12CCCN(C1)c1nc(OC[C@@]34CCCN3C[C@H](F)C4)nc3c(F)c(ncc13)-c1cccc3ccc(F)c(c13)CCOC(=O)N2` (single isomer, unassigned) [Example 78], for which the half-maximal inhibitory concentration (IC50) worked out at 3810 nM.

The molecule `O=C1OC/C=C/c2c(Cl)cc3[nH]ncc3c2-c2ncc3c(nc(OC[C@@]45CCCN4C[C@H](F)C5)nc3c2F)N2CCC[C@H](C2)O1` (single isomer, unassigned) [Example 116] came in with an IC50 of 17 nM.

Take `O=C1OC/C=C\c2c(Cl)cc3[nH]ncc3c2-c2ncc3c(nc(OC[C@@]45CCCN4C[C@H](F)C5)nc3c2F)N2CCC[C@H](C2)O1` (single isomer, unassigned) [Example 122]: the 50% inhibitory concentration (IC50) turned out to be 5 nM.

In turn, `Cc1cc2[nH]ncc2c2c1/C=C\COC(=O)O[C@@H]1CCCN(C1)c1nc(OC[C@@]34CCCN3C[C@H](F)C4)nc3c(F)c-2ncc13` (single isomer, unassigned) [Example 123] displayed a half-maximal inhibitory concentration (IC50) of 8 nM.

As to `Fc1c2ncc3c(nc(OC[C@@]45CCCN4C[C@H](F)C5)nc13)N1CCOC[C@H](COCCCCc3c(Cl)cc4[nH]ncc4c3-2)C1` (single isomer, unassigned) [Example 136], the IC50 was found to be 7 nM.

Molecule `Fc1c2ncc3c(nc(OC[C@@]45CCCN4C[C@H](F)C5)nc13)N1CCOC[C@@H](COCCCCc3c(Cl)cc4[nH]ncc4c3-2)C1` (single isomer, unassigned) [Example 137] registered an IC50 of 4 nM.

`Cc1cc2[nH]ncc2c2c1CCCC(F)C(=O)N[C@@H]1CCCCN(C1)c1nc(OC[C@@]34CCCN3C[C@H](F)C4)nc3c(F)c-2ncc13` (single isomer, unassigned) [Example 159] displayed an IC50 of 6 nM.

Molecule `Cc1cc2[nH]ncc2c2c1CCCC(F)C(=O)N[C@@H]1CCCCN(C1)c1nc(OC[C@@]34CCCN3C[C@H](F)C4)nc3c(F)c-2ncc13` (single isomer, unassigned) [Example 160] returned an IC50 of 4 nM.

In the case of `O=C1CCCCc2c(Cl)cccc2-c2ncc3c(nc(OC[C@@]45CCCN4C[C@H](F)C5)nc3c2F)N2CC[C@H]3CCN1[C@H]3C2` (single isomer, unassigned) [Example 162], the half-maximal inhibitory concentration (IC50) was 37 nM.

Turning to `O=C1CCCCc2c(Cl)cccc2-c2ncc3c(nc(OC[C@@]45CCCN4C[C@H](F)C5)nc3c2F)N2CC[C@@H]3CCN1[C@@H]3C2` (single isomer, unassigned) [Example 163], the IC50 was determined as 2840 nM.

Molecule `C[C@]12CCCCN(C1)c1nc(OC[C@@]34CCCN3C[C@H](F)C4)nc3c(F)c(ncc13)-c1c(c(Cl)cc3[nH]ncc13)CCCCC(=O)N2` (single isomer, unassigned) [Example 165] showed an IC50 of 12700 nM.

The molecule `C[C@@]12CCCCN(C1)c1nc(OC[C@@]34CCCN3C[C@H](F)C4)nc3c(F)c(ncc13)-c1c(c(Cl)cc3[nH]ncc13)CCCCC(=O)N2` (single isomer, unassigned) [Example 166] displayed a concentration for half-maximal inhibition (IC50) of 5 nM.

Molecule `O=C1OCCCc2c(Cl)cc3[nH]ncc3c2-c2ncc3c(nc(OC[C@@]45CCCN4C[C@H](F)C5)nc3c2F)N2CC[C@@H]3CCN1[C@@H]3C2` (single isomer, unassigned) [Example 176] came in with an IC50 of 287 nM.

As to `O=C1OCCCc2c(Cl)cc3[nH]ncc3c2-c2ncc3c(nc(OC[C@@]45CCCN4C[C@H](F)C5)nc3c2F)N2CC[C@H]3CCN1[C@H]3C2` (single isomer, unassigned) [Example 177], the IC50 came to 3 nM.

Consider `CN1CCC[C@H]1COc1nc2c3cnc(c(F)c3n1)-c1c(c(Cl)cc3[nH]ncc13)CCCOC(=O)O[C@@]1(C)COCCN2C1` (single isomer, unassigned) [Example 180], for which the concentration for half-maximal inhibition (IC50) came out at 1510 nM.

`CN1CCC[C@H]1COc1nc2c3cnc(c(F)c3n1)-c1c(c(Cl)cc3[nH]ncc13)CCCOC(=O)O[C@]1(C)COCCN2C1` (single isomer, unassigned) [Example 181] returned an IC50 of 6 nM.

`Cc1cc2[nH]ncc2c2c1CCCOC(=O)O[C@@]1(C)COCCN(C1)c1nc(OC[C@@H]3CCCN3C)nc3c(F)c-2ncc13` (single isomer, unassigned) [Example 182] displayed a 50% inhibitory concentration (IC50) of 7570 nM.

For the molecule `Cc1cc2[nH]ncc2c2c1CCCOC(=O)O[C@]1(C)COCCN(C1)c1nc(OC[C@@H]3CCCN3C)nc3c(F)c-2ncc13` (single isomer, unassigned) [Example 183], the 50% inhibitory concentration (IC50) was found to be 8 nM.

`C[C@@H](Oc1nc2c3cnc(c(F)c3n1)-c1c(c(Cl)cc3[nH]ncc13)CCCOC(=O)O[C@@H]1COCCN2C1)[C@@H]1CCCN1C` (single isomer, unassigned) [Example 203] gave a 50% inhibitory concentration (IC50) of 17 nM.

`C[C@H](Oc1nc2c3cnc(c(F)c3n1)-c1c(c(Cl)cc3[nH]ncc13)CCCOC(=O)O[C@@H]1COCCN2C1)[C@@H]1CCCN1C` (single isomer, unassigned) [Example 204]: the IC50 was found to be 34 nM.

Turning to `Cc1cc2[nH]ncc2c2c1C[C@@H](C)COC(=O)O[C@@H]1CCCN(C1)c1nc(OC[C@@]34CCCN3C[C@H](F)C4)nc3c(F)c-2ncc13` (single isomer, unassigned) [Example 214], the IC50 was found to be 22 nM.

`Cc1cc2[nH]ncc2c2c1C[C@H](C)COC(=O)O[C@@H]1CCCN(C1)c1nc(OC[C@@]34CCCN3C[C@H](F)C4)nc3c(F)c-2ncc13` (single isomer, unassigned) [Example 215] gave a half-inhibitory concentration (IC50) of 15 nM.

As to `Fc1cc2[nH]ncc2c2c1CCCCOC[C@@H]1CCCCN(C1)c1nc(OC[C@@]34CCCN3C[C@H](F)C4)nc3c(F)c-2ncc13` (single isomer, unassigned) [Example 239], the concentration for half-maximal inhibition (IC50) turned out to be 6 nM.

Staying with this experiment, now noted: TR-FRET; read-out: KRAS G12D Binding IC50.
Take `CC12COCCN(C1)c1nc(OC[C@@]34CCCN3C[C@H](F)C4)nc3c(F)c(ncc13)-c1c(c(Cl)cc3[nH]ncc13)CCCc1nc2no1` (mixture of isomers) [Example 379, (1RS)-10-chloro-33-fluoro-24-(((2R,7a.S)-2-fluorotetrahydro-1H-pyrrolo[1,2-α]pyrrol-7a(5H)-yl)methoxy)-1-methyl-4,30-dioxa-3,13,14,19,23,25,27,34-octaazaheptacyclo[25.4.1.1~2,5~.1~18,22~.0~9,17~.0~12,16~.0~21,26~]tetratriaconta-2,5(34),9,11,14,16,18(33),19,21,23,25-undecaene]: the IC50 is 9 nM.

As to `Fc1c2ncc3c(nc(OC[C@@]45CCCN4C[C@H](F)C5)nc13)N1CCCCC(C1)c1noc(n1)CCCc1c(Cl)cc3[nH]ncc3c1-2` (mixture of isomers) [Example 382, (1RS)-10-chloro-33-fluoro-24-(((2R,7a.S)-2-fluorotetrahydro-1H-pyrrolo[1,2-α]pyrrol-7a(5H)-yl)methoxy)-4-oxa-3,13,14,19,23,25,27,34-octaazaheptacyclo[25.4.1.1~2,5~.1~18,22~.0~9,17~0~12,16~.0~21,26~]tetratriaconta-2,5(34),9,11,14,16,18(33),19,21,23,25-undecaene], the 50% inhibitory concentration (IC50) was 5 nM.

In the case of `Fc1c2ncc3c(nc(OC[C@@]45CCCN4C[C@H](F)C5)nc13)N1CCC[C@H](C1)Cn1ncc(n1)[C@@H]1C[C@@H]1c1c(Cl)cc3[nH]ncc3c1-2` (relative stereo) [Example 383, (11R,13S,19R)-rel-9-chloro-32-fluoro-26-(((2.R.7aS)-2-fluorotetrahydro-1H-pyrrolo[1,2-α]pyrrol-7a(5H)-yl)methoxy)-5,6,16,17,23,25,27,31,34-nonaazaoctacyclo[26.3.1.1~14,17~1~19,23~.0~2,10~0~3,7~.0~11,13~.0~24,29~]tetratriaconta-1(32),2.4,7,9,14(34),15,24,26,28,30-undecaene], the IC50 was found to be 13 nM.
